Patent US8557798

Conditions: from COC(=O)c1cccc(CN2C(=O)NC(C)(c3cccc(CCCN)c3)C2=O)c1; amide bond; sodium methoxide; MeOH; 7.5 mM; 85.0 °C; 96.0 h

For `CC12NC(=O)N(Cc3cccc(c3)C(=O)NCCCc3cccc1c3)C2=O` (stereo not shown), the ring closure, yield of all isomers was 48%.
